US20200157144A1, “ANTIMICROBIAL PEPTIDOMIMETICS” (priority 2017, published 2020)
Values after ≈ are worked out from the molar mass of the structure shown. Square brackets hold non-standard residues; d marks the D form. Peptide text beside a SMILES is read from it. Bip(4'-Cl) = N[C@@H](Cc1ccc(-c2ccc(Cl)cc2)cc1)C(=O)O; dBip(4'-Cl) = N[C@H](Cc1ccc(-c2ccc(Cl)cc2)cc1)C(=O)O; Bip = N[C@@H](Cc1ccc(-c2ccccc2)cc1)C(=O)O; dBip = N[C@H](Cc1ccc(-c2ccccc2)cc1)C(=O)O; Phe(4-Br) = N[C@@H](Cc1ccc(Br)cc1)C(=O)O; Phe(4-I) = N[C@@H](Cc1ccc(I)cc1)C(=O)O

The molecules below were run on Mupirocin-resistant MRSA ATCC-BAA-1556 (assay: microbe, parasite or virus in culture). Conditions: ATCC-BAA-1556; read-out: MIC.
Assay type: cell-based, Staphylococcus aureus
Description: The MICs of test compounds were determined using the microdilution method from the Clinical and Laboratory Standards Institute (CLSI) guidelines (Clinical and Laboratory Standards Institute. Methods for dilution antimicrobial susceptibility tests for bacteria that grow aerobically; approved standard—ninth edition. Document M07-A9. Vol. 32 No. 2. Wayne, Pa.: CLSI; 2012). Briefly, bacteria were grown fresh from frozen stock in Mueller Hinton 2 (MH2) agar at 37° C. After an overnight incubation, 5 bacteria colonies were selected to grow in cation-adjusted MH2 broth in a shaking incubator (140 RPM) at 37° C. Cells were grown to an optical density (OD600) of 0.15-0.16 determined using a spectrophotometer (Molecular Devices Spectra Max Plus), which corresponds to ˜1×10^8 CFU/mL. Test compounds were constituted into 4 mM DMSO stock solutions and then subjected to 2-fold serial dilution in a 96-well plate with concentrations ranging from 100 to 0.195 μM in duplicates. […] of microbial culture containing ˜1×10^6 CFU/mL of microbes in the respective broths was introduced into each well containing 50 μL of compound solution. After an overnight incubation at 35° C., (220 RPM), OD600 measurements were conducted using the microplate spectrophotometer. The MIC was defined as the lowest antibiotic or compound concentration (μM) required to inhibit bacteria growth.
The 11th well was used as the growth control well (medium with bacterial inoculums, no antibacterial) while the 12th well was the sterility control well (medium only).

Work on `N=C(N)NCCC[C@H](NC(=O)[C@H](Cc1ccc(-c2ccccc2)cc1)NC(=O)[C@H](CCCNC(=N)N)NC(=O)[C@@H](N)Cc1ccccc1)C(N)=O` [Compound 5] (H-FR[Bip]R-NH2) yielded an MIC of over 100 µM.
In the case of `N=C(N)NCCC[C@H](NC(=O)[C@H](Cc1ccccc1)NC(=O)[C@H](CCCNC(=N)N)NC(=O)[C@@H](N)Cc1ccc(-c2ccccc2)cc1)C(N)=O` [Compound 6] (H-[Bip]RFR-NH2), the MIC was over 100 µM.
`N=C(N)NCCC[C@@H](NC(=O)[C@H](N)Cc1ccc(-c2ccc(Cl)cc2)cc1)C(N)=O` [Compound 37] gave an MIC of over 100 µM.

Point of comparison: `N=C(N)NCCC[C@@H](NC(=O)[C@@H](Cc1ccc(-c2ccccc2)cc1)NC(=O)[C@@H](CCCNC(=N)N)NC(=O)[C@H](N)Cc1ccc(-c2ccccc2)cc1)C(N)=O` [Compound 4] (H-[dBip][dR][dBip][dR]-NH2), MIC 12.5 µM (≈ 9.7 µg/mL). Against it:
- N=C(N)NCCC[C@H](NC(=O)[C@H](Cc1ccc(-c2ccc(Br)cc2)cc1)NC(=O)[C@H](CCCNC(=N)N)NC(=O)[C@@H](N)Cc1ccc(-c2ccccc2)cc1)C(N)=O [Compound 20] — 2-fold lower, 6.25 µM (≈ 5.34 µg/mL)
- N=C(N)NCCC[C@H](NC(=O)[C@H](Cc1ccc(-c2ccc(Cl)cc2)cc1)NC(=O)[C@H](CCCNC(=N)N)NC(=O)[C@H](N)Cc1ccc(-c2ccc(Cl)cc2)cc1)C(N)=O [Compound 42] (H-[dBip(4'-Cl)]R[Bip(4'-Cl)]R-NH2) — 2-fold lower, 6.25 µM (≈ 5.28 µg/mL)
- N=C(N)NCCC[C@H](NC(=O)[C@H](Cc1ccc(-c2ccc(Cl)cc2)cc1)NC(=O)[C@@H](CCCNC(=N)N)NC(=O)[C@@H](N)Cc1ccc(-c2ccc(Cl)cc2)cc1)C(N)=O [Compound 43] (H-[Bip(4'-Cl)][dR][Bip(4'-Cl)]R-NH2) — 2-fold lower, 6.25 µM (≈ 5.28 µg/mL)
- CC(C)(C)c1ccc(-c2ccc(C[C@H](N)C(=O)N[C@@H](CCCNC(=N)N)C(=O)N[C@@H](Cc3ccc(-c4ccccc4)cc3)C(=O)N[C@@H](CCCNC(=N)N)C(N)=O)cc2)cc1 [Compound 23] — the same, 12.5 µM (≈ 10.4 µg/mL)
- N=C(N)NCCC[C@H](NC(=O)[C@H](Cc1ccc(-c2ccccc2)cc1)NC(=O)[C@H](CCCNC(=N)N)NC(=O)[C@@H](N)Cc1ccc(-c2ccccc2)cc1)C(N)=O [Compound 3] (H-[Bip]R[Bip]R-NH2) — the same, 12.5 µM (≈ 9.7 µg/mL)
- CC(C)(C)c1ccc(-c2ccc(C[C@H](NC(=O)[C@H](CCCNC(=N)N)NC(=O)[C@@H](N)Cc3ccc(-c4ccccc4)cc3)C(=O)N[C@@H](CCCNC(=N)N)C(N)=O)cc2)cc1 [Compound 24] — the same, 12.5 µM (≈ 10.4 µg/mL)
- N=C(N)NCCC[C@H](NC(=O)[C@H](Cc1ccc(-c2ccccc2)cc1)NC(=O)[C@H](CCCNC(=N)N)NC(=O)[C@@H](N)Cc1ccc(-c2ccc(Cl)c(Cl)c2)cc1)C(N)=O [Compound 17] — 2-fold lower, 6.25 µM (≈ 5.28 µg/mL)
- N=C(N)NCCC[C@H](NC(=O)[C@@H](N)Cc1ccc(-c2ccc(Cl)cc2)cc1)C(=O)N[C@@H](Cc1ccc(-c2ccc(Cl)cc2)cc1)C(=O)N[C@H](CCCNC(=N)N)C(N)=O [Compound 45] (H-[Bip(4'-Cl)]R[Bip(4'-Cl)][dR]-NH2) — 2-fold lower, 6.25 µM (≈ 5.28 µg/mL)
- N=C(N)NCCC[C@H](NC(=O)[C@H](Cc1ccc(I)cc1)NC(=O)[C@H](CCCNC(=N)N)NC(=O)[C@@H](N)Cc1ccc(-c2ccccc2)cc1)C(N)=O [Compound 14] (H-[Bip]R[Phe(4-I)]R-NH2) — 8-fold higher, 100 µM (≈ 82.6 µg/mL)
- N=C(N)NCCC[C@H](NC(=O)[C@H](Cc1ccc(-c2ccccc2)cc1)NC(=O)[C@H](CCCNC(=N)N)NC(=O)[C@@H](N)Cc1ccc(Br)cc1)C(N)=O [Compound 11] (H-[Phe(4-Br)]R[Bip]R-NH2) — 4-fold higher, 50 µM (≈ 38.9 µg/mL)
- N=C(N)NCCC[C@@H](NC(=O)[C@H](N)Cc1ccc(-c2ccc(Cl)cc2)cc1)C(=O)N[C@H](Cc1ccc(-c2ccc(Cl)cc2)cc1)C(N)=O [Compound 35] — 2-fold lower, 6.25 µM (≈ 4.3 µg/mL)
- N=C(N)NCCC[C@H](NC(=O)[C@H](Cc1ccc(-c2ccccc2)cc1)NC(=O)[C@H](CCCNC(=N)N)NC(=O)[C@@H](N)Cc1ccc(-c2ccc(Br)cc2)cc1)C(N)=O [Compound 19] — 2-fold lower, 6.25 µM (≈ 5.34 µg/mL)
- CC(C)(C)c1cc(-c2ccc(C[C@H](N)C(=O)N[C@@H](CCCNC(=N)N)C(=O)N[C@@H](Cc3ccc(-c4ccccc4)cc3)C(=O)N[C@@H](CCCNC(=N)N)C(N)=O)cc2)cc(C(C)(C)C)c1 [Compound 29] — 4-fold higher, 50 µM (≈ 44.4 µg/mL)
